Values of other authors in US10668058B2, “Device and method for delivery of a medicament” (Philip Morris Products S.A., priority 2007, dated 2020).

Details: 25° C.

SMILES: CN1CCCC1c1cccnc1 (stereo not shown) [Nicotine only, Nicotine]
- vapor pressure: 0.04 mm Hg
